US8859009B2, “Method of fixing antibacterial agent and article obtained by the method” (Hiroshima University, priority 2008, dated 2014)

Test system: strain GDH18 of Candida Albicans
Experiment: Antibacterial-property test on hemocytometer cover glass test pieces (colour change of agar), Example 3
Type: cell-based
Procedure: A hemocytometer cover glass was used as a test piece of an article on which an antibacterial agent is fixed. A strain GDH18 of Candida Albicans was used as the bacteria for use in the antibacterial-property test. The bacteria was incubated on Sabouraud agar for 18 hours and a bacteria solution having bacteria concentration of 1×10^6 cells/mL was prepared using ultra pure water (MQ water). The test pieces were immersed for 1 minute in approximately 30 mL of ozone water (0.4 to 0.6 ppm) produced by using ultra pure water and “Ozone Dash” manufactured by Ozone Total System Co., Ltd. The test pieces were then drained on a filtering paper and immersed for 5 minutes in following aqueous solutions, respectively: Each test piece was then taken out of the aqueous solution, immediately washed with water such that excess antibacterial composition was removed, whereby test pieces for the antibacterial-property test were obtained. […] Each test piece was left for 2 hours at the room temperature to wait for sedimentation of the bacteria. Thereafter, 5 mL of Sabouraud agar containing chlorophenol red as a pH indicator (Candida yellow agar, manufactured by Fuji Pharma Co., Ltd.) was added to each test piece and the respective test pieces were continually incubated at 37° C. […] Antibacterial property was evaluated using such change in color as described above of the agar as an index.

## CCCCCCCCCCCCCCCCCC[N+](C)(C)CCC[Si](OCC)(OCC)OCC.[Cl-] [EtAC, octadecyldimethyl(3-triethoxysilylpropyl)ammonium chloride]
Control without ozone water treatment, EtAC treatment 5 minutes
  antibacterial performance: hardly exhibited antibacterial performance
Upper control: immersed in MQ water (no ozone water), then 70% ethanol solution of EtAC 5 minutes, 45 hours
  color of the agar: strongly yellow
Upper control: immersed in MQ water (no ozone water), then 70% ethanol solution of EtAC 5 minutes, 45 hours, from agar colour
  number of bacteria cells: ≥ 5e+07 mL⁻¹
